# Where two headings read alike, the source gives them in different places. Numbered stars: 1 amine (or outer) side, 2 acyl side, 3 side chain; on linkers, the order of the positions; unused ones are H or OH. Square brackets hold non-standard residues; d marks the D form. Peptide text beside a SMILES is read from it. MeBmt = C/C=C/C[C@@H](C)[C@@H](O)[C@H](NC)C(=O)O; NMeLeu(4-OH) = CN[C@@H](CC(C)(C)O)C(=O)O; X2 = CN(C(Sc1ccccn1)C(=O)[*:2])[*:1]; NMeL = CN[C@@H](CC(C)C)C(=O)O; NMeV = CN[C@H](C(=O)O)C(C)C; Abu = CC[C@H](N)C(=O)O
# Assays:
# HIV = format: cell-based
# Text: The inhibitory effect of test compounds on the HIV-induced cytopathic effect on the MT4 T cell line as described by R. Pauwels in J. Virol. Methods, 1988, Vol. 20, pp 309-321 was used.
# [1] = Antiinflammatory activity, adjuvent arthritis test (Pearson); format: in vivo; settings: oral, solutions in olive oil and tween 80
# Experimental: The antiinflammatory activity of test compounds was determined by the adjuvent arthritis test described by Pearson, “Arthr. Rheum”, 1959, Vol. 2., 440. Test compounds were administered orally as solutions in olive oil and tween 80.
# cyclophilin = cyclophilin (Homo sapiens, UniProt P62937); assay: Test for cyclophilin binding (Fliri); settings: ratio to cyclosporin A
# Chain of cyclophilin (P62937 whole entry): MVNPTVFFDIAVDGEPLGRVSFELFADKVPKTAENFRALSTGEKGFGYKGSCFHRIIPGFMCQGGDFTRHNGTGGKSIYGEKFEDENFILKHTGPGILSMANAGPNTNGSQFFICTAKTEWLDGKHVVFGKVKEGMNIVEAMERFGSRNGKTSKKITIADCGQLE
# Text: To measure the affinity and inhibition of test compounds for cyclophilin, the test described by H. Fliri in “Antibiotics and Antiviral compounds”, 1993, Verlag Chemie, K.Krohn, H. A. Kirst, and H. Maag, eds., p 229-240 was used.
# [2] = test system: T. gondii tachyzoites, strain RH; format: cell-based, Toxoplasma gondii; settings: 72 h
# Experimental: Using microliter plates, T. gondii tachyzoites, strain RH were co-incubated with fibroblasts (MCR5, Bio-Merieux) for 72 hrs in the presence and absence of test compounds T. gondii was quantified using an ELISA. The activities of the test compounds are as follows: […]
SMILES,IC50 (HIV) [µg/mL],"ED50, dose effective in reducing the joint swelling by 50% [1] [mg/kg]","Relative IC50, i.e. IC50 (cyclosporin A)/IC50 (test compound) (cyclophilin)",IC50 (HIV; HIV-induced cytopathic effect on MT4 T cell line) [µg/mL],Activity against T. gondii (IC50) [2] [µg/mL]
"C/C=C/C[C@@H](C)[C@@H](O)[C@H]1C(=O)N[C@@H](CC)C(=O)N(C)C(Sc2ccccn2)C(=O)N(C)[C@@H](CC(C)C)C(=O)N[C@@H](C(C)C)C(=O)N(C)[C@@H](CC(C)C)C(=O)N[C@@H](C)C(=O)N[C@H](C)C(=O)N(C)[C@@H](CC(C)C)C(=O)N(C)[C@@H](CC(C)C)C(=O)N(C)[C@@H](C(C)C)C(=O)N1C (stereo partly drawn) [Example 1, 3-(Pyridyl-2-thio)-cyclosporin] (HELM PEPTIDE1{[C/C=C/C[C@@H](C)[C@@H](O)[C@@H](C(=O)[*:2])N(C)[*:1]].[Abu].[CN(C(Sc1ccccn1)C(=O)[*:2])[*:1]].[meL].V.[meL].A.[dA].[meL].[meL].[meV]}$PEPTIDE1,PEPTIDE1,1:R1-11:R2$$$V2.0)",0.45,25,0.2,–,–
"C/C=C/C[C@@H](C)[C@@H](O)[C@H]1C(=O)N[C@@H](CC)C(=O)N(C)C(Sc2ccncc2)C(=O)N(C)[C@@H](CC(C)C)C(=O)N[C@@H](C(C)C)C(=O)N(C)[C@@H](CC(C)C)C(=O)N[C@@H](C)C(=O)N[C@H](C)C(=O)N(C)[C@@H](CC(C)C)C(=O)N(C)[C@@H](CC(C)C)C(=O)N(C)[C@@H](C(C)C)C(=O)N1C (stereo partly drawn) [Example 2, 3-(Pyridyl-4-thio)-cyclosporin A] (HELM PEPTIDE1{[C/C=C/C[C@@H](C)[C@@H](O)[C@@H](C(=O)[*:2])N(C)[*:1]].[Abu].[CN(C(Sc1ccncc1)C(=O)[*:2])[*:1]].[meL].V.[meL].A.[dA].[meL].[meL].[meV]}$PEPTIDE1,PEPTIDE1,1:R1-11:R2$$$V2.0)",1,25,0.2,–,–
"C/C=C/C[C@@H](C)[C@@H](O)[C@H]1C(=O)N[C@@H](CC)C(=O)N(C)C(Sc2ccccn2)C(=O)N(C)[C@@H](CC(C)(C)O)C(=O)N[C@@H](C(C)C)C(=O)N(C)[C@@H](CC(C)C)C(=O)N[C@@H](C)C(=O)N[C@H](C)C(=O)N(C)[C@@H](CC(C)C)C(=O)N(C)[C@@H](CC(C)C)C(=O)N(C)[C@@H](C(C)C)C(=O)N1C (stereo partly drawn) [Example 3, 3-(Pyridyl-2-thio)-4-(γ-hydroxy-methylleucine)-cyclosporin] (cyclo([MeBmt][Abu][X2][NMeLeu(4-OH)]V[NMeL]A[dA][NMeL][NMeL][NMeV]))",1,25,0.2,–,–
"C/C=C/C[C@@H](C)[C@@H](O)[C@H]1C(=O)N[C@@H](CC)C(=O)N(C)C(Sc2ccccn2)C(=O)N(C)[C@@H](C(C)C)C(=O)N[C@@H](C(C)C)C(=O)N(C)[C@@H](CC(C)C)C(=O)N[C@@H](C)C(=O)N[C@H](C)C(=O)N(C)[C@@H](CC(C)C)C(=O)N(C)[C@@H](CC(C)C)C(=O)N(C)[C@@H](C(C)C)C(=O)N1C (stereo partly drawn) [Example 4, 3-(Pyridyl-2-thio)-4-methylvaline-cyclosporin] (HELM PEPTIDE1{[C/C=C/C[C@@H](C)[C@@H](O)[C@@H](C(=O)[*:2])N(C)[*:1]].[Abu].[CN(C(Sc1ccccn1)C(=O)[*:2])[*:1]].[meV].V.[meL].A.[dA].[meL].[meL].[meV]}$PEPTIDE1,PEPTIDE1,1:R1-11:R2$$$V2.0)",1,25,0.2,–,–
"C/C=C/C[C@@H](C)[C@@H](O)[C@H]1C(=O)N[C@@H](CCC)C(=O)N(C)C(Sc2ccccn2)C(=O)N(C)[C@@H](CC(C)C)C(=O)N[C@@H](C(C)C)C(=O)N(C)[C@@H](CC(C)C)C(=O)N[C@@H](C)C(=O)N[C@H](C)C(=O)N(C)[C@@H](CC(C)C)C(=O)N(C)[C@@H](CC(C)C)C(=O)N(C)[C@@H](C(C)C)C(=O)N1C (stereo partly drawn) [Example 5, 3-(Pyridyl-2-thio)-2-norvaline-cyclosporin] (HELM PEPTIDE1{[C/C=C/C[C@@H](C)[C@@H](O)[C@@H](C(=O)[*:2])N(C)[*:1]].[Nva].[CN(C(Sc1ccccn1)C(=O)[*:2])[*:1]].[meL].V.[meL].A.[dA].[meL].[meL].[meV]}$PEPTIDE1,PEPTIDE1,1:R1-11:R2$$$V2.0)",1,25,0.2,–,–
"C/C=C/C[C@@H](C)[C@@H](O)[C@H]1C(=O)N[C@@H](C(C)C)C(=O)N(C)C(Sc2ccccn2)C(=O)N(C)[C@@H](CC(C)C)C(=O)N[C@@H](C(C)C)C(=O)N(C)[C@@H](CC(C)C)C(=O)N[C@@H](C)C(=O)N[C@H](C)C(=O)N(C)[C@@H](CC(C)C)C(=O)N(C)[C@@H](CC(C)C)C(=O)N(C)[C@@H](C(C)C)C(=O)N1C (stereo partly drawn) [Example 6, 3-(Pyridyl-2-thio)-2-valine-cyclosporin] (HELM PEPTIDE1{[C/C=C/C[C@@H](C)[C@@H](O)[C@@H](C(=O)[*:2])N(C)[*:1]].V.[CN(C(Sc1ccccn1)C(=O)[*:2])[*:1]].[meL].V.[meL].A.[dA].[meL].[meL].[meV]}$PEPTIDE1,PEPTIDE1,1:R1-11:R2$$$V2.0)",1,25,0.2,–,–
"C/C=C/C[C@@H](C)[C@@H](O)[C@H]1C(=O)N[C@@H](CC)C(=O)N(C)C(Sc2ccccn2)C(=O)N(C)[C@@H](CC(C)C)C(=O)N[C@@H](C(C)C)C(=O)N(C)[C@@H](CC(C)C)C(=O)N[C@@H](C)C(=O)N[C@H](CO)C(=O)N(C)[C@@H](CC(C)C)C(=O)N(C)[C@@H](CC(C)C)C(=O)N(C)[C@@H](C(C)C)C(=O)N1C (stereo partly drawn) [Example 7, 3-(Pyridyl-2-thio)-8-(D)-serine-cyclosporin] (HELM PEPTIDE1{[C/C=C/C[C@@H](C)[C@@H](O)[C@@H](C(=O)[*:2])N(C)[*:1]].[Abu].[CN(C(Sc1ccccn1)C(=O)[*:2])[*:1]].[meL].V.[meL].A.[dS].[meL].[meL].[meV]}$PEPTIDE1,PEPTIDE1,1:R1-11:R2$$$V2.0)",1,25,0.2,–,–
"C/C=C/C[C@@H](C)[C@@H](O)[C@H]1C(=O)N[C@@H](CC)C(=O)N(C)C(Sc2ccccc2)C(=O)N(C)[C@@H](CC(C)C)C(=O)N[C@@H](C(C)C)C(=O)N(C)[C@@H](CC(C)C)C(=O)N[C@@H](C)C(=O)N[C@H](C)C(=O)N(C)[C@@H](CC(C)C)C(=O)N(C)[C@@H](CC(C)C)C(=O)N(C)[C@@H](C(C)C)C(=O)N1C (stereo partly drawn) [Example 8, 3-(Phenylthio)-cyclosporin A] (HELM PEPTIDE1{[C/C=C/C[C@@H](C)[C@@H](O)[C@@H](C(=O)[*:2])N(C)[*:1]].[Abu].[CN(C(Sc1ccccc1)C(=O)[*:2])[*:1]].[meL].V.[meL].A.[dA].[meL].[meL].[meV]}$PEPTIDE1,PEPTIDE1,1:R1-11:R2$$$V2.0)",0.5,25,0.4,–,–
"C/C=C/C[C@@H](C)[C@@H](O)[C@H]1C(=O)N[C@@H](CC)C(=O)N(C)C(SCCN(C)C)C(=O)N(C)[C@@H](CC(C)C)C(=O)N[C@@H](C(C)C)C(=O)N(C)[C@@H](CC(C)C)C(=O)N[C@@H](C)C(=O)N[C@H](C)C(=O)N(C)[C@@H](CC(C)C)C(=O)N(C)[C@@H](CC(C)C)C(=O)N(C)[C@@H](C(C)C)C(=O)N1C (stereo partly drawn) [Example 9, 3-(2-dimethylaminoethylthio)-cyclosporin]",–,–,–,0.03,0.1
"C/C=C/C[C@@H](C)[C@@H](OC(C)=O)[C@H]1C(=O)N[C@@H](CC)C(=O)N(C)C(OC(C)=O)C(=O)N(C)[C@@H](CC(C)C)C(=O)N[C@@H](C(C)C)C(=O)N(C)[C@@H](CC(C)C)C(=O)N[C@@H](C)C(=O)N[C@H](C)C(=O)N(C)[C@@H](CC(C)C)C(=O)N(C)[C@@H](CC(C)C)C(=O)N(C)[C@@H](C(C)C)C(=O)N1C (stereo partly drawn) [Example 12, 3′,3-Diacetoxy-cyclosporin]",0.15,15,1.5,–,–
"C/C=C/C[C@@H](C)[C@@H](O)[C@H]1C(=O)N[C@@H](CC)C(=O)N(C)C(OC(C)=O)C(=O)N(C)[C@@H](CC(C)C)C(=O)N[C@@H](C(C)C)C(=O)N(C)[C@@H](CC(C)C)C(=O)N[C@@H](C)C(=O)N[C@H](C)C(=O)N(C)[C@@H](CC(C)C)C(=O)N(C)[C@@H](CC(C)C)C(=O)N(C)[C@@H](C(C)C)C(=O)N1C (stereo partly drawn) [Example 13, 3-Acetoxy-cyclosporin]",0.15,–,–,–,1
"C/C=C/C[C@@H](C)[C@@H](O)[C@H]1C(=O)N[C@@H](CC)C(=O)N(C)C(OC)C(=O)N(C)[C@@H](CC(C)C)C(=O)N[C@@H](C(C)C)C(=O)N(C)[C@@H](CC(C)C)C(=O)N[C@@H](C)C(=O)N[C@H](C)C(=O)N(C)[C@@H](CC(C)C)C(=O)N(C)[C@@H](CC(C)C)C(=O)N(C)[C@@H](C(C)C)C(=O)N1C (stereo partly drawn) [Example 14, 3-Methoxycyclosporin]",–,10,–,–,0.6
